The results in this text go back to patent US3974140A, “Ureidoacetamido-penicillins” (Bayer Aktiengesellschaft, priority 1970, dated 1976).

SMILES strings stand for the structures. Values joined by “and” are separate entries in the source; they are usually repeats but may differ in a detail not shown here. Equal values may be shown once.

Common to all, as to experiment: MIC, liquid medium test tube series dilution test
The test system of one assay is Psdm. aerug. Walter. Format: cell-based, Pseudomonas aerug. The note with it: 24 hours, 37°C. In outline:
(§1)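 In this in vitro test, growth inhibition is judged by absence of turbidity across a dilution series in complete nutrient broth. Readings are made after 24 hours at 37°C, with values given in units/ml.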

A further assay has as its system Psdm. aerug. Bonn. The format is cell-based, Pseudomonas aerug. To be noted: 24 hours, 37°C. In outline:
as §1

The test system of a further assay is E. coli 14. Format: cell-based. To be noted: E. coli 14, 24 hours, 37°C. In outline: as §1
The subject of the next assay is Klebsiella K 10. The format is cell-based. To be noted: Klebsiella K 10, 24 hours, 37°C. In outline: as §1
For another assay, the system named is E. coli C 165. The format is cell-based. The note with it: E. coli C 165, 24 hours, 37°C. In outline: as §1
The next assay relates to E. coli 183/58. Format: cell-based. To be noted: E. coli 183/58, 24 hours, 37°C. In outline: as §1
For assay [1], the system named is Streptoc. faec. ATCC 9790. Format: cell-based. To be noted: Strep. faec. (Enterococcus) ATCC 9790, 24 hours, 37°C. In outline:
as §1

For the next assay, the system named is E. coli A 261. The format is cell-based. The note with it: E. coli A 261, 24 hours, 37°C. In outline:
as §1

In the next assay the test system is Klebsiella 63. The format is cell-based. To be noted: Klebsiella 63, 24 hours, 37°C. In outline:
as §1

For another assay, the system named is Staph. aureus 133. The format is cell-based, Staphylococcus aureus. The note with it: Staph. aureus 133, 24 hours, 37°C. In outline:
as §1

A further assay concerns Staph. aureus 1777 E. The format is cell-based, Staphylococcus aureus. To be noted: 24 hours, 37°C. In outline: as §1
The test system of a further assay is Proteus vulg. 1017. The format is cell-based, Proteus vulgaris. To be noted: Proteus vulg. 1017, 24 hours, 37°C. In outline:
as §1

In a further assay the test system is Proteus vulg. 3400. Format: cell-based, Proteus vulgaris. The note with it: Proteus vulg. 3400, 24 hours, 37°C. In outline:
as §1

Consider `CSc1ccc(C(NC(=O)N2CCNC2=O)C(=O)N[C@@H]2C(=O)N3[C@@H]2SC(C)(C)[C@@H]3C(=O)O)cc1` (stereo partly drawn) [Example 54, Sodium α-[(imidazolidin-2-on-1-yl)-carbonylamino]-4-methylthiobenzylpenicillin], for which the MIC against Psdm. aerug. Walter is 25 units/ml; in the assay on Psdm. aerug. Bonn it was 12,5 units/ml; in the assay on E. coli 14 it was 6,25 units/ml; against Klebsiella K 10, 100 units/ml; in the assay on E. coli C 165 it was 25 units/ml; with E. coli 183/58, 6,25 units/ml. The MIC is 50 units/ml in assay [1]; more than 400 units/ml against E. coli A 261; 100 units/ml in the assay with Klebsiella 63; < 0,78 units/ml with Staph. aureus 133; 200 units/ml in the assay with Staph. aureus 1777 E; 200 units/ml in the assay on Proteus vulg. 1017. Further, in the assay on Proteus vulg. 3400, the MIC is 100 units/ml.
As to `CSc1ccc(C(NC(=O)N2CCNC2=O)C(=O)N[C@@H]2C(=O)N3[C@@H]2SC(C)(C)[C@@H]3C(=O)O)cc1` (stereo partly drawn) [Example 55, Sodium α-[(imidazolidin-2-on-1-yl)-carbonylamino]-4-methylthiobenzylpenicillin], the MIC in the assay on Psdm. aerug. Walter is 25 units/ml; against Psdm. aerug. Bonn it was 12,5 units/ml; against E. coli 14 it was 6,25 units/ml; in the assay with Klebsiella K 10 it was 100 units/ml; in the assay on E. coli C 165, 25 units/ml; with E. coli 183/58, 12,5 units/ml. Moreover, the MIC in assay [1] is recorded as 50 units/ml; in the assay on E. coli A 261, more than 400 units/ml; against Klebsiella 63, 100 units/ml; with Staph. aureus 133, < 0,78 units/ml; against Staph. aureus 1777 E it was 200 units/ml; in the assay with Proteus vulg. 1017, 100 units/ml. In addition, the MIC in the assay with Proteus vulg. 3400 came to 100 units/ml.
Regarding `CCOC(=O)N(C)C(=O)N[C@@H](C(=O)N[C@@H]1C(=O)N2[C@@H]1SC(C)(C)[C@@H]2C(=O)O)c1ccccc1` [Example 61, Sodium D(-)-α-(3-ethoxycarbonyl-3-methyl-ureido)-benzylpenicillin], the MIC against Psdm. aerug. Walter amounted to 25 units/ml; against Psdm. aerug. Bonn, 12.5 units/ml; against E. coli 14, 3.12 units/ml; in the assay on Klebsiella K 10 it was 100 units/ml; in the assay with E. coli C 165, 6.25 units/ml; against E. coli 183/58 it was 6.25 units/ml. Besides, the MIC in assay [1] was 50 units/ml; in the assay with E. coli A 261, more than 400 units/ml; against Klebsiella 63, 50 units/ml; in the assay on Staph. aureus 133, less than 0.78 units/ml; against Staph. aureus 1777 E, 200 units/ml; against Proteus vulg. 1017 it was 25 units/ml. The same molecule had an MIC in the assay with Proteus vulg. 3400 of 25 units/ml.
For `CN(C(=O)N[C@@H](C(=O)N[C@@H]1C(=O)N2[C@@H]1SC(C)(C)[C@@H]2C(=O)O)c1ccccc1)C(=O)C1CCCCC1` [Example 62], the MIC was 25 units/ml in the assay on Psdm. aerug. Walter; 12 units/ml and 12.5 units/ml with Psdm. aerug. Bonn; 1.56 units/ml in the assay on E. coli 14; 100 units/ml in the assay with Klebsiella K 10; 6.25 units/ml against E. coli C 165; 3.12 units/ml with E. coli 183/58. The MIC in assay [1] was 100 units/ml; against E. coli A 261, 400 units/ml; against Klebsiella 63, 100 units/ml; in the assay with Staph. aureus 133, less than 0.78 units/ml; in the assay with Staph. aureus 1777 E, 400 units/ml; against Proteus vulg. 1017 it was 6.25 units/ml. The molecule further returned an MIC with Proteus vulg. 3400 of 6.25 units/ml.
For the molecule `CN(C(=O)C=Cc1ccccc1)C(=O)N[C@@H](C(=O)N[C@@H]1C(=O)N2[C@@H]1SC(C)(C)[C@@H]2C(=O)O)c1ccccc1` [Example 63, Sodium D(-)-α-(3-cinnamoyl-3-methyl-ureido)-benzylpenicillin], the MIC in the assay with Psdm. aerug. Walter was 12.5 units/ml; in the assay with Psdm. aerug. Bonn, 6.25 units/ml; in the assay on E. coli 14, less than 0.78 units/ml; in the assay on Klebsiella K 10, 50 units/ml; in the assay with E. coli C 165, 1.56 units/ml; against E. coli 183/58 it was less than 0.78 units/ml. For the same molecule, the MIC in assay [1] is on record as 50 units/ml; in the assay on E. coli A 261, 400 units/ml; with Klebsiella 63, 50 units/ml; against Staph. aureus 133, less than 0.78 units/ml; with Staph. aureus 1777 E, 200 units/ml; with Proteus vulg. 1017, 1.56 units/ml. The MIC with Proteus vulg. 3400 is recorded as 3.12 units/ml.
Regarding `CCCCOC(=O)N(C)C(=O)N[C@@H](C(=O)N[C@@H]1C(=O)N2[C@@H]1SC(C)(C)[C@@H]2C(=O)O)c1ccccc1` [Example 98, Sodium D(-)-α-(3-n-butoxycarbonyl-3-methyl-ureido)-benzylpenicillin], the MIC with Psdm. aerug. Walter is 25 units/ml; with Psdm. aerug. Walter (listed as (B) of Example 28), 25 units/ml; against Psdm. aerug. Bonn, 12.5 units/ml; against Psdm. aerug. Bonn (listed as (B) of Example 28) it was 12.5 units/ml; against E. coli 14 it was 3.12 units/ml; in the assay on E. coli 14 (listed as (B) of Example 28) it was 3.12 units/ml. Besides, the MIC against Klebsiella K 10 is 400 units/ml; with E. coli C 165, 6.25 units/ml; against E. coli C 165 (listed as (B) of Example 28) it was 6.25 units/ml; in the assay on E. coli 183/58, 6.25 units/ml; against E. coli 183/58 (listed as (B) of Example 28), 6.25 units/ml; in assay [1], 100 units/ml. Moreover, the MIC is recorded as more than 400 units/ml against E. coli A 261; 400 units/ml with Klebsiella 63; less than 0.78 units/ml against Staph. aureus 133; less than 0.78 units/ml in the assay on Staph. aureus 133 (listed as (B) of Example 28); 200 units/ml in the assay on Staph. aureus 1777 E; 12.5 units/ml in the assay on Proteus vulg. 1017. In addition, the MIC against Proteus vulg. 1017 (listed as (B) of Example 28) was 12.5 units/ml; in the assay with Proteus vulg. 3400, 25 units/ml; in the assay on Proteus vulg. 3400 (listed as (B) of Example 28), 25 units/ml.
As to `CNC(=O)N(C)C(=O)N[C@@H](C(=O)N[C@@H]1C(=O)N2[C@@H]1SC(C)(C)[C@@H]2C(=O)O)c1ccccc1` [Example 110, Sodium D(-)-α-(3-methylaminocarbonyl-3-methyl-ureido)-benzylpenicillin], the MIC with Psdm. aerug. Walter is given as 20-100 units/ml; in the assay on Psdm. aerug. Bonn, 20-100 units/ml; against E. coli 14, 0.8-4 units/ml; with Klebsiella K 10, 4-20 units/ml; against E. coli C 165 it was 4-20 units/ml; with E. coli 183/58, 4-20 units/ml. Also, the MIC in assay [1] is listed as 4-20 units/ml; with E. coli A 261, 100-500 units/ml; against Klebsiella 63, 4-20 units/ml; with Staph. aureus 133 it was 0.8 units/ml; with Staph. aureus 1777 E, 20-100 units/ml; in the assay with Proteus vulg. 1017, 4-20 units/ml. Besides, the MIC in the assay on Proteus vulg. 3400 is 4-20 units/ml.
In the case of `CN(C(=O)N[C@@H](C(=O)N[C@@H]1C(=O)N2[C@@H]1SC(C)(C)[C@@H]2C(=O)O)c1ccccc1)C(=O)c1cc(Cl)ccc1Cl` [Example 111, Sodium D(-)-α-(3-[2,5-dichlorobenzoyl]-3-methyl-ureido)-benzylpenicillin], the MIC is recorded as 4-20 units/ml in the assay on Psdm. aerug. Walter; 4-20 units/ml in the assay with Psdm. aerug. Bonn; less than 0.8 units/ml with E. coli 14; 4-20 units/ml in the assay with Klebsiella K 10; 0.8-4 units/ml with E. coli C 165; less than 0.8 units/ml in the assay on E. coli 183/58. For the same molecule, the MIC is 4-20 units/ml in assay [1]; 20-100 units/ml in the assay on E. coli A 261; 4-20 units/ml with Klebsiella 63; 0.8 units/ml in the assay on Staph. aureus 133; 4-20 units/ml in the assay on Staph. aureus 1777 E; 0.8-4 units/ml with Proteus vulg. 1017. Besides, the MIC in the assay with Proteus vulg. 3400 was 0.8-4 units/ml.
`CN(C(=O)N[C@@H](C(=O)N[C@@H]1C(=O)N2[C@@H]1SC(C)(C)[C@@H]2C(=O)O)c1ccccc1)C(=O)c1ccc(Cl)cc1` [Example 112, Sodium D(-)-α-(3-p-chlorebenzoyl-3-methyl-ureido)-benzylpenicillin]: the MIC against Psdm. aerug. Walter is on record as 4-20 units/ml; in the assay on Psdm. aerug. Bonn it was 4- 20 units/ml; against E. coli 14, less than 0.8 units/ml; against Klebsiella K 10, 4-20 units/ml; against E. coli C 165 it was 0.8-4 units/ml; against E. coli 183/58, less than 0.8 units/ml. The MIC is listed as 4-20 units/ml in [1]; 20-100 units/ml in the assay with E. coli A 261; 4-20 units/ml against Klebsiella 63; 0.8 units/ml against Staph. aureus 133; 20-100 units/ml against Staph. aureus 1777 E; 0.8-4 units/ml with Proteus vulg. 1017. In addition, the MIC against Proteus vulg. 3400 was 0.8-4 units/ml.
